The text below walks through data of paper PMC11923649, “Novel C-2 Aromatic Heterocycle-Substituted Triterpenoids Inhibit Hedgehog Signaling in GLI1 Overexpression Cancer Cells” (ACS Omega, 2025).

Assay [1] relates to MRC-5 lung fibroblasts. The assay can be described thus: MTS cytotoxicity assay, 72 h, MRC-5 fibroblasts. The format is cell-based, human. As to conditions: Homo sapiens, MRC5, 72 h, normal fibroblasts. The procedure, abridged: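 Cells were exposed to compounds for 72 h at 50–0.0975 μmol/L (2-fold dilutions), then MTS/phenazine methosulfate was added for 1–4 h. Absorbance read at 490 nm; IC50 derived from concentration-response.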

Assay [2] concerns Gli1 protein in A549 cells. The assay can be described thus: Western blot of Gli1 in A549 cells, 24 h. The format is cell-based, human. As to conditions: A549, 24 h, immunoblot. Here is the method: In order to verify that compounds 11a and 11b inhibit the proliferation of A549 and DU-145 through Hh inhibition, we monitored the expression of Hh target genes in these cell lines (Figure 2). […] The decreased protein expression of Gli1 targets Cyclin D1, N-Myc, and Bcl-2 strongly indicates inhibition of its transcriptional activity, and their downregulation correlates with the data obtained by the U-87 MG-Gli-FLuc reporter assay. Importantly, these proteins are involved in cell cycle progression, proliferation, and survival. N-Myc amplification or deregulation of transcription, stability, and degradation is associated with many malignancies,[34] and the observed downregulation induced by 11a and 11b may reduce its oncogenic effect.
Figure 2 Effect of compounds 11a and 11b on the protein expression of the Gli1 transcription factor and its transcriptional targets in A549 (A) and DU145 (B) cells following 24 h of incubation. […]
Cells were washed with PBS and lysed on ice in 200 μL of RIPA (Radioimmunoprecipitation Assay) buffer for 30 min. Then, cell lysates were clarified by centrifugation (15000 rpm, 20 min, 4 °C), and the protein concentration in the collected supernatants was determined using a BCA method (Bicinchoninic Acid test). […] Luminescence signal detection was performed by using an Odyssey FC instrument (LI-COR Biosciences).

The subject of assay [3] is DAOY (medulloblastoma). Kind of assay: MTS cytotoxicity assay, 72 h, DAOY. The format is cell-based. As to conditions: Homo sapiens, read-out: IC50 medulloblastoma (DAYO). An excerpt: (§1) Concerning nonsmall cell lung carcinoma (NSCLC)-derived cell lines, we selected two subtype groups with different expression levels of GLI1, based on a study by Yuan et al.[35] The first group includes cell lines where GLI1 is highly expressed (A549 and NCI-H522), while the second group includes low GLI1-expressing cell lines (HOP-62 and NCI-H322). It has been established that cell lines expressing high levels of GLI1 are relatively resistant to SMO antagonists due to a hyper-activated HH signaling pathway.[35] […] These interesting findings may indicate the potential of 11b to overcome hyper-activated HH signaling in particular NSCLC subsets. […] Lower activity was observed against medulloblastoma (DAYO) and glioblastoma (T98G)-derived cell lines with an IC50 above 20 μmol/L.
(§2) The human prostate tumor-derived cell line DU145 was obtained from ATCC (American Type Culture Collection) and cultured in RPMI 1640 (Roswell Park Memorial Institute) medium supplemented with 10% (v/v) fetal bovine serum (FBS). Human prostate tumor-derived LNCaP cells were obtained from ATCC and cultured in RPMI 1640 medium supplemented with 10% FBS. […] Finally, the absorbance at 490 nm was measured using an EnVision multifunctional modular reader (PerkinElmer). The IC50 value was determined using Dotmatics software.
For orientation: Tetrazolium dyes change colour on reduction, which living cells bring about.

The subject of assay [4] is T98G (glioblastoma). Kind of assay: MTS cytotoxicity assay, 72 h, T98G. It is filed as cell-based. As to conditions: Homo sapiens.
Source text: as §1, §2

In assay [5] the test system is HOP-62 (NSCLC, low GLI1). The assay can be described thus: MTS cytotoxicity assay, 72 h, HOP-62. The note with it: compared with A549. It is filed as cell-based, human.
Source text: as §1, §2

The subject of assay [6] is NCI-H322 (NSCLC, low GLI1). The assay can be described thus: MTS cytotoxicity assay, 72 h, NCI-H322. The format is cell-based, human. The note with it: compared with A549.
Source text: as §1, §2

Consider `C=C(C)[C@@H]1CC[C@]2(C(=O)O)CC[C@]3(C)C(CCC4[C@@]5(C)C=C(c6ccco6)C(=O)C(C)(C)C5CC[C@]43C)C12` (stereo partly shown) [Compound 11a, 2-(Furan-2-yl)-3-oxolupa-1,20(29)-dien-28-oic acid], for which the values for the IC50 in assay [1] (Table 1) and in assay [1] (full Table S1) were 27 µM and 26.8 µM, respectively. Further, the “Endogenous Gli1 protein level” value in assay [2] is recorded as “inhibit the endogenous Gli1 protein level in a dose-dependent manner”.
Consider `C=C(C)[C@@H]1CC[C@]2(C(=O)O)CC[C@]3(C)C(CCC4[C@@]5(C)C=C(c6ccoc6)C(=O)C(C)(C)C5CC[C@]43C)C12` (stereo partly shown) [Compound 11b, 2-(Furan-3-yl)-3-oxolupa-1,20(29)-dien-28-oic acid], for which the IC50 in assay [1] (Table 1) is 24 µM; in assay [1] (full Table S1), 23.9 µM; in assay [3], over 20 µM; in assay [4], over 20 µM. For the same compound, the “Endogenous Gli1 protein level” value in assay [2] was “inhibit the endogenous Gli1 protein level in a dose-dependent manner”. In addition, in assay [5], the “IC50 of HOP-62 relative to A549” value is reported as “almost two times higher”. The “IC50 of NCI-H322 relative to A549” value in assay [6] is given as “almost two times higher”.

A word on the IC50: it is the concentration that inhibits the measured activity by half.
